Assays:
deoxynivalenol (DON) = assay: DON content of harvested wheat grains after field treatment (extraction, HPLC/MS); assay type: in vivo, Fusarium sp. on winter wheat cultivar "Ritmo"; settings: relative to untreated wheat (33.7 mg/kg DON), sprayed at GS 63, metconazole 45 g/ha, epoxyconazole 75 g/ha
Protocol: (§1) At growth stage GS 25-29 (tillering), outdoor winter wheat of the cultivar “Ritmo” was inoculated with rye grains infected with Fusarium sp. The active compounds were applied at growth stage GS 63 (beginning of flowering). Both metconazole and epoxyconazole were used as finished formulations (metconazole: trade name “Caramba”; epoxyconazole: trade name “Opus”; metconazole as SL=[…]; epoxyconazole as SC=suspensible concentrate). These formulations were diluted with water to the desired concentration, and the plants were treated by spraying with these diluted preparations. The active compounds were applied jointly as a tank mix. For comparison, the individual fungicides were also only employed on their own. Three weeks after application, the infection of the ears with Fusarium fungi was determined visually. The wheat grains were harvested and the DON content of the grains was determined after extraction and analysis by HPLC/MS. For comparative evaluation, the Fusarium infection and the DON value found for untreated wheat were defined as 100%. […] The expected efficacies for active compound combinations were determined using Colby's formula (S. R. Colby, Calculating Synergistic and Antagonistic Responses of Herbicide Combinations, Weeds, 15, pages 20-22, 1967) and compared with the observed efficacies.

Fusarium sp. = assay: Fusarium ear infection of winter wheat under field conditions, determined visually; assay type: in vivo, Fusarium sp. on winter wheat cultivar "Ritmo"; settings: winter wheat "Ritmo" inoculated with Fusarium sp. at GS 25-29, sprayed at GS 63, assessed three weeks after application, relative to untreated control, metconazole 45 g/ha, epoxyconazole 75 g/ha
Protocol: as §1

| Compound | Reduction of DON content [%] (deoxynivalenol (DON)) | Effect on infection [%] (Fusarium sp.) |
| --- | --- | --- |
| Fc1ccc([C@]2(Cn3cncn3)O[C@H]2c2ccccc2Cl)cc1 (racemic) [epoxyconazole] | 0% | 5% |
| CC1(C)CCC(Cc2ccc(Cl)cc2)C1(O)Cn1cncn1 (stereo not shown) [metconazole] | 33% | 27% |

Reference: patent publication US20090124678A1, “Combined Use of Metconazole and Epoxiconazole for Reducing or Preventing the Contamination of Cereals With Mycotoxins” (priority 2005, published 2009)
